Measurements taken from patent publication US7285534B2, “Corticotropin-releasing hormone analogs and their uses” (The Regents of the University of California, priority 2002, dated 2007).
“Also recorded” adds a separate entry of the source. Read-outs that look alike come from different tables or passages of the source. Residues, ends and D or L forms follow the SMILES beside them.

Assays:
[1] = tested on: S91 mouse Cloudman cells (cell line M3); assay: In vitro anti-proliferation assay, Cloudman melanoma cell counts; assay type: cell-based; conditions: for EC50: Cloudman melanoma cells; for Anti-proliferative effect on Cloudman melanoma cells (in words): in vitro
Procedure: S91 mouse Cloudman cells (cell line M3) were obtained from the American Type Culture Collection. Hams F-10 medium, fetal bovine serum, and horse serum were obtained from Gibco BRL. Cloudman cells were cultured in Ham's F-10 medium supplemented with 5% horse serum, 2.5% fetal bovine serum, and 1% penicillin/streptomycin in a humidified incubator with 5% C02 at 37° C. Media were changed every second day.
Cells were plated at a concentration of ˜20,000 cells per well in Ham's F-10 medium supplemented with 5% horse serum, 2.5% fetal bovine serum and 1% penicillin/streptomycin into tissue-culture-12-well plates. Test peptides or sterile water containing 0.5% BSA (vehicle control) were added to culture medium prior to plating, and cells were allowed to adhere overnight in a humidified incubator with 5% CO2 at 37° C. Culture medium containing peptides and culture medium containing vehicle control were changed daily. For counting, cells were detached with 200 μL of 0.25% trypsin. Detachment levels were verified under a light microscope. After detachment, cell suspensions were transferred to 1.5-mL Eppendorf tubes, vigorously pipetted for uniform suspension, and cell number in 10 μL of cell suspension was counted in a hemacytometer under a light microscope.

[2] = Hypotensive activity relative to CRH; conditions: in vivo
[3] = tested on: W256 rat mammary carcinoma; conditions: 100 micrograms/kg subcutaneously twice a day for 3 days; cited from earlier work
W256 cells = conditions: cited from earlier work
[4] = read-out: EC50 values for CRH peptides versus Cloudman melanoma
[5] = Cloudman cells, relative to CRH

| Molecule | EC50 [1, 4] | Anti-proliferative effect on Cloudman melanoma cells (in words) [1] | other results |
| --- | --- | --- | --- |
| CC[C@H](C)[C@H](NC(=O)[C@@H](NC(=O)[C@H](CC(=O)O)NC(=O)[C@H](CC(C)C)NC(=O)[C@H](CC(C)C)NC(=O)[C@H](CC(C)C)NC(=O)[C@H](CCCNC(=N)N)NC(=O)[C@H](CC(N)=O)NC(=O)[C@H](CC(N)=O)NC(=O)[C@H](C)NC(=O)[C@H](C)NC(=O)[C@H](CCC(N)=O)NC(=O)[C@H](CCC(N)=O)NC(=O)[C@H](CCCCN)NC(=O)[C@H](CCC(=O)O)NC(=O)[C@H](CCCCN)NC(=O)[C@H](CCC(=O)O)NC(=O)[C@H](CCC(N)=O)NC(=O)[C@H](CCCCN)NC(=O)[C@H](CCC(=O)O)NC(=O)[C@@H](NC(=O)[C@H](CCC(=O)O)NC(=O)[C@@H](NC(=O)[C@H](CCSC)NC(=O)[C@H](CCCCN)NC(=O)[C@H](CCCNC(=N)N)NC(=O)[C@H](CC(C)C)NC(=O)[C@H](CC(C)C)NC(=O)[C@H](CCC(=O)O)NC(=O)[C@H](CC(C)C)NC(=O)[C@H](CO)NC(=O)[C@H](CC(C)C)NC(=O)[C@H](CC(=O)O)NC(=O)[C@@H](NC(=O)[C@H](CO)NC(=O)[C@@H](NC(=O)[C@@H]1CCCN1C(=O)[C@@H]1CCCN1C(=O)CNC(=O)[C@@H]1CCC(=O)N1)[C@@H](C)CC)[C@@H](C)CC)[C@@H](C)CC)[C@@H](C)CC)[C@@H](C)O)C(N)=O [VII, Sauvagine] | 7.8 pM | highly effective in suppressing proliferation |  |
| CC[C@H](C)[C@H](NC(=O)[C@@H](NC(=O)[C@H](CCC(=O)O)NC(=O)[C@H](CCSC)NC(=O)[C@H](CC(C)C)NC(=O)[C@H](CCCCN)NC(=O)[C@H](CCCNC(=N)N)NC(=O)[C@H](CC(N)=O)NC(=O)[C@H](CO)NC(=O)[C@H](Cc1c[nH]cn1)NC(=O)[C@H](C)NC(=O)[C@H](CCC(N)=O)NC(=O)[C@H](CCC(N)=O)NC(=O)[C@H](C)NC(=O)[C@H](CC(C)C)NC(=O)[C@H](CCC(N)=O)NC(=O)[C@H](CCC(=O)O)NC(=O)[C@H](C)NC(=O)[C@H](CCCNC(=N)N)NC(=O)[C@H](C)NC(=O)[C@H](CCSC)NC(=O)[C@H](CCC(=O)O)NC(=O)[C@H](CC(C)C)NC(=O)[C@@H](NC(=O)[C@H](CCC(=O)O)NC(=O)[C@H](CCCNC(=N)N)NC(=O)[C@H](CC(C)C)NC(=O)[C@H](CC(C)C)NC(=O)[C@H](Cc1c[nH]cn1)NC(=O)[C@H](Cc1ccccc1)NC(=O)[C@@H](NC(=O)[C@H](CC(C)C)NC(=O)[C@H](CC(=O)O)NC(=O)[C@H](CC(C)C)NC(=O)[C@H](CO)NC(=O)[C@@H](NC(=O)[C@H]1CCCN1C(=O)[C@@H]1CCCN1C(=O)[C@H](CCC(=O)O)NC(=O)[C@H](CCC(=O)O)NC(=O)[C@@H](N)CO)[C@@H](C)CC)[C@@H](C)O)C(C)C)[C@@H](C)CC)C(N)=O [III, [D-Pro^5]-CRH] | 82 pM |  | EC50 fold greater than CRH [1, 5]: 10 fold |
| CC[C@H](C)[C@H](NC(=O)[C@@H](NC(=O)[C@H](CCC(=O)O)NC(=O)[C@H](CCSC)NC(=O)[C@H](CC(C)C)NC(=O)[C@H](CCCCN)NC(=O)[C@H](CCCNC(=N)N)NC(=O)[C@H](CC(N)=O)NC(=O)[C@H](CO)NC(=O)[C@H](Cc1c[nH]cn1)NC(=O)[C@H](C)NC(=O)[C@H](CCC(N)=O)NC(=O)[C@H](CCC(N)=O)NC(=O)[C@H](C)NC(=O)[C@H](CC(C)C)NC(=O)[C@H](CCC(N)=O)NC(=O)[C@H](CCC(=O)O)NC(=O)[C@H](C)NC(=O)[C@H](CCCNC(=N)N)NC(=O)[C@H](C)NC(=O)[C@H](CCSC)NC(=O)[C@H](CCC(=O)O)NC(=O)[C@H](CC(C)C)NC(=O)[C@@H](NC(=O)[C@H](CCC(=O)O)NC(=O)[C@H](CCCNC(=N)N)NC(=O)[C@H](CC(C)C)NC(=O)[C@H](CC(C)C)NC(=O)[C@H](Cc1c[nH]cn1)NC(=O)[C@H](Cc1ccccc1)NC(=O)[C@@H](NC(=O)[C@H](CC(C)C)NC(=O)[C@H](CC(=O)O)NC(=O)[C@H](CC(C)C)NC(=O)[C@H](CO)NC(=O)[C@@H](NC(=O)[C@@H]1CCCN1C(=O)[C@@H]1CCCN1C(=O)[C@H](CCC(=O)O)NC(=O)[C@H](CCC(=O)O)NC(=O)[C@@H](N)CO)[C@@H](C)CC)[C@@H](C)O)C(C)C)[C@@H](C)CC)C(N)=O [Peptide I, CRH] | 8.6 pM | Significant anti-proliferative effects | Inhibition of growth of intracerebrally-injected W256 tumor cells [3]: significant inhibition of growth; Antiproliferative effects in in vitro cultures of W256 cells (W256 cells): exhibited antiproliferative effects; Time of maximum suppression of proliferation after treatment ([1]; Cloudman cells): about 96 hr; EC50 ([1]; 96 hr, read-out: EC50 of CRH after 96 hr): 9 pM |
| acetyl-cyclo (30-33)[D-Phe^12, Nle^18, D-Glu^20, Nle^21, Glu^30, D-Ala^32]-urotensin 1(4-41) [Peptide V] |  | highly effective in suppressing proliferation | EC50 fold lower than that of CRH [1, 5]: 10 fold |
| α-helical-CRH(9-41) |  |  | Inhibition of the anti-proliferative effect of CRH peptides by the CRH receptor antagonist ([1]; Cloudman cells): inhibited |

Now from value to molecule, other results behind:

| EC50 [1, 4] | Molecule | Anti-proliferative effect on Cloudman melanoma cells (in words) [1] | other results |
| --- | --- | --- | --- |
| 16 pM | CC[C@H](C)[C@H](NC(=O)[C@@H](NC(=O)[C@H](CCC(=O)O)NC(=O)[C@H](CCSC)NC(=O)[C@H](CC(C)C)NC(=O)[C@H](CCCCN)NC(=O)[C@H](CCCNC(=N)N)NC(=O)[C@H](CC(N)=O)NC(=O)[C@H](CO)NC(=O)[C@H](Cc1c[nH]cn1)NC(=O)[C@H](C)NC(=O)[C@H](CCC(N)=O)NC(=O)[C@H](CCC(N)=O)NC(=O)[C@H](C)NC(=O)[C@H](CC(C)C)NC(=O)[C@H](CCC(N)=O)NC(=O)[C@H](CCC(=O)O)NC(=O)[C@H](C)NC(=O)[C@H](CCCNC(=N)N)NC(=O)[C@H](C)NC(=O)[C@H](CCSC)NC(=O)[C@@H](CCC(=O)O)NC(=O)[C@H](CC(C)C)NC(=O)[C@@H](NC(=O)[C@H](CCC(=O)O)NC(=O)[C@H](CCCNC(=N)N)NC(=O)[C@H](CC(C)C)NC(=O)[C@H](CC(C)C)NC(=O)[C@H](Cc1c[nH]cn1)NC(=O)[C@H](Cc1ccccc1)NC(=O)[C@@H](NC(=O)[C@H](CC(C)C)NC(=O)[C@H](CC(=O)O)NC(=O)[C@H](CC(C)C)NC(=O)[C@H](CO)NC(=O)[C@@H](NC(=O)[C@@H]1CCCN1C(=O)[C@@H]1CCCN1C(=O)[C@H](CCC(=O)O)NC(=O)[C@H](CCC(=O)O)NC(=O)[C@@H](N)CO)[C@@H](C)CC)[C@@H](C)O)C(C)C)[C@@H](C)CC)C(N)=O [II, [D-Glu^20]-CRH] | retained; also recorded: significantly inhibit proliferation | Hypotensive activity relative to CRH [2]: diminished |
| 9.5 pM | CC[C@H](C)[C@H](NC(=O)[C@H](CO)NC(=O)[C@H](CC(C)C)NC(=O)[C@H](CO)NC(=O)[C@@H]1CCCN1C(=O)[C@H](CC(N)=O)NC(=O)[C@@H](N)CC(=O)O)C(=O)N[C@@H](CC(=O)O)C(=O)N[C@@H](CC(C)C)C(=O)N[C@H](C(=O)N[C@@H](Cc1ccccc1)C(=O)N[C@@H](Cc1c[nH]cn1)C(=O)N[C@@H](CC(C)C)C(=O)N[C@@H](CC(C)C)C(=O)N[C@@H](CCCNC(=N)N)C(=O)N[C@H](C(=O)N[C@@H](CC(C)C)C(=O)N[C@@H](CC(C)C)C(=O)N[C@@H](CCC(=O)O)C(=O)N[C@@H](CC(C)C)C(=O)N[C@@H](C)C(=O)N[C@@H](CCCNC(=N)N)C(=O)N[C@H](C(=O)N[C@@H](CCC(N)=O)C(=O)N[C@@H](CO)C(=O)N[C@@H](CCC(N)=O)C(=O)N[C@@H](CCCNC(=N)N)C(=O)N[C@@H](CCC(=O)O)C(=O)N[C@@H](CCCNC(=N)N)C(=O)N[C@@H](C)C(=O)N[C@@H](CCC(=O)O)C(=O)N[C@@H](CCC(N)=O)C(=O)N[C@@H](CC(N)=O)C(=O)N[C@@H](CCCNC(=N)N)C(=O)N[C@H](C(=O)N[C@H](C(=O)N[C@@H](Cc1ccccc1)C(=O)N[C@@H](CC(=O)O)C(=O)N[C@@H](CO)C(=O)N[C@H](C(N)=O)C(C)C)[C@@H](C)CC)[C@@H](C)CC)[C@@H](C)O)[C@@H](C)O)[C@@H](C)O [VI, Urocortin] (H-DNPSLSIDLTFHLLRTLLELARTQSQRERAEQNRIIFDSV-NH2) | highly effective in suppressing proliferation |  |
